≈ marks a conversion by molar mass, not a printed value.
Columns and labels:
drDXPS [1] = biological target: T1, drDXPS (Deinococcus radiodurans, UniProt Q9RUB5); assay: biochemical; conditions: for inhibition at 120 µM: read-out: inhib. (%) drDXPS, at 120 μM
mtDXPS = mtDXPS (Mycobacterium tuberculosis, UniProt P9WNS3); assay: biochemical; conditions: for inhibition at 200 µM / inhibition at 120 µM: read-out: inhib. (%) mtDXPS; for inhib. (%) mtDXPS: at 120 μM (Table 3: concentration only given)
E. coli TolC = assay: microbe, parasite or virus in culture; type: cell-based; conditions: for inhibition at 50 µM / MIC: Escherichia coli; for inhibition at 50 µM: read-out: inhib. (%) growth inhibition of E. coli TolC; for MIC: read-out: MIC E. coli TolC
drDXPS [2] = biological target: T1, drDXPS; assay: biochemical; conditions: for IC50: IC50 drDXPS
M. tuberculosis H37Rv = assay: microbe, parasite or virus in culture; type: cell-based, Mycobacterium tuberculosis; conditions: for anti-TB activity, head-to-head comparative analysis: 16 μM, 14 compounds tested; for MIC: Mycobacterium tuberculosis, H37RV, read-out: MIC M. tuberculosis
[3] = type: physicochemical; conditions: when added at higher concentrations
drDXPS [4] = biological target: T1, drDXPS; type: binding

T1 sequence (Q9RUB5 whole entry): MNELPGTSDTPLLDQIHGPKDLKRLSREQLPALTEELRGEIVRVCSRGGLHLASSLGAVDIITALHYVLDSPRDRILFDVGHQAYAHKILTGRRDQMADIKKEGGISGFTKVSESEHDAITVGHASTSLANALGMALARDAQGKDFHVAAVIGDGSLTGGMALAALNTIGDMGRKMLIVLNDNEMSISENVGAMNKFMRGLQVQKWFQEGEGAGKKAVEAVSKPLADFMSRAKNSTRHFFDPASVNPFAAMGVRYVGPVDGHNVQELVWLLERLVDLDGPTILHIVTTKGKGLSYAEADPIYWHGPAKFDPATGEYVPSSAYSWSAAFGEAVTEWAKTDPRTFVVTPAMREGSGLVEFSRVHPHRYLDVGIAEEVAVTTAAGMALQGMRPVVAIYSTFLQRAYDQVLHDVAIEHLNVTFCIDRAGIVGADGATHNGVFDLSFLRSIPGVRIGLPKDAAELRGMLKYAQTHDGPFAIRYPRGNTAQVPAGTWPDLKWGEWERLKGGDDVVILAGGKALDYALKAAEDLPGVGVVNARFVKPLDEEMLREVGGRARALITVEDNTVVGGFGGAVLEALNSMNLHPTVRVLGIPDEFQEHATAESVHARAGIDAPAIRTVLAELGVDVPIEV
mtDXPS, sequence (P9WNS3 whole entry): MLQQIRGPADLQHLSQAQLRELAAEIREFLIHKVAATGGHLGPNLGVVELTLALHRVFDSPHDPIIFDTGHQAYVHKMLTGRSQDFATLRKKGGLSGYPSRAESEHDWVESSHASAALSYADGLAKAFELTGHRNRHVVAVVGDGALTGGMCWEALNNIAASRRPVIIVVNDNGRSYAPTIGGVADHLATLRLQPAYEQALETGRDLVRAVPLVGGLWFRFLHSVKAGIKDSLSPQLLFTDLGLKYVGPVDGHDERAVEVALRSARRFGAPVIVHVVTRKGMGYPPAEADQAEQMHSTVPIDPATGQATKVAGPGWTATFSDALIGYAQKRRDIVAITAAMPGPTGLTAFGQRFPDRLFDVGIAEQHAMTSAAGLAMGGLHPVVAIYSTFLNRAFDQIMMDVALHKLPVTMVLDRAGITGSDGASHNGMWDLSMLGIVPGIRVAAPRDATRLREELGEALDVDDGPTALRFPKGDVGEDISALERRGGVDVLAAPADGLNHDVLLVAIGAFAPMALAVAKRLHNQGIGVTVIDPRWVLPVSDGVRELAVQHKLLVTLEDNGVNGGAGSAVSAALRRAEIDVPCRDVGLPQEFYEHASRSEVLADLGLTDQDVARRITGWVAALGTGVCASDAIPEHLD

Row | Compound | inhibition at 120 µM (drDXPS [1]) [%] | inhibition at 120 µM (mtDXPS) [%] | inhibition at 50 µM (E. coli TolC) [%] | MIC (E. coli TolC) [µM] | also measured
1 | O=C(N/N=C/c1ccc(C(F)(F)F)nc1)c1cc2c(s1)CCCC2 [Compound 1, (E)-N'-((6-(Trifluoromethyl)pyridin-3-yl)methylene)-4,5,6,7-tetrahydrobenzo[b]thiophene-2-carbohydrazide] |  |  |  |  | IC50 (drDXPS [1]; IC50 drDXPS): 51 µM; IC50 (mtDXPS; IC50 mtDXPS): 78 µM; inhib. (%) growth inhibition of E. coli TolC (E. coli TolC; at 50 μM): no inhib. and n.i.; mode of inhibition (drDXPS [2]): ThDP- and pyruvate-competitive and non-competitive with respect to D/L-GAP; IC50 (drDXPS [2]; at 0.3 μM ThDP): 35 ± 10 µM; IC50 (drDXPS [2]; at 0.1 mM pyruvate): 19 ± 5 µM; IC50 (drDXPS [2]; at 0.4 mM pyruvate): 86 ± 15 µM; IC50 (drDXPS [2]; varying D/L-GAP concentrations): ~50 µM; inhibition of drDXPS (drDXPS [2]; at 5 μM ThDP): 20%; inhibition of drDXPS (drDXPS [2]; at 0.6 mM pyruvate): 32%
2 | Nc1ncc(/C=N/NC(=O)c2cc3c(s2)CCCC3)cn1 [Compound 3] | 15 |  |  |  | inhib. (%) growth inhibition of E. coli TolC (E. coli TolC; at 50 μM): n.i.
3 | O=C(Cc1c[nH]c2ccccc12)N/N=C/c1ccc(C(F)(F)F)nc1 [Compound 4] |  |  |  |  | inhib. (%) drDXPS (drDXPS [1]; at 120 μM): n.i.; inhibition at 200 µM (mtDXPS): 25%
4 | O=C(COc1ccc(Cl)cc1Cl)N/N=C/c1cc2c(s1)CCCC2 [Compound 6] |  | 46 |  |  | IC50 (drDXPS [1]; IC50 drDXPS): 101 µM; inhib. (%) growth inhibition of E. coli TolC (E. coli TolC; at 25 μM): n.i.^#
5 | O=C(N/N=C/c1cc2c(s1)CCCC2)c1cccs1 [Compound 7] | 37 | 65 | 57 |  | inhibition at 200 µM (mtDXPS): 65 ± 4%; anti-TB activity, head-to-head comparative analysis (M. tuberculosis H37Rv): most active; MIC (M. tuberculosis H37Rv): > 64 µM; aggregate formation [3]: did not induce aggregate formation
6 | O=C(COc1ccc(Cl)cc1Cl)N/N=C/c1c[nH]c2ccccc12 [Compound 9] | 38 |  |  | 19 ± 7 (≈ 6.88 µg/mL) | inhibition at 200 µM (mtDXPS): 15%
7 | O=C(COc1ccc(Cl)cc1Cl)N/N=C/c1ccc(Br)cn1 [Compound 10] | 14 |  | 21 |  | inhibition at 200 µM (mtDXPS): 32%
8 | O=C(CCCOc1ccc(Cl)cc1Cl)N/N=C/c1ncc[nH]1 [Compound 12] | 33 | 9 | 30 |  | 
9 | O=C(CCCOc1ccc(Cl)cc1Cl)N/N=C/c1cccs1 [Compound 16] | 4 |  | 28 |  | inhib. (%) mtDXPS (mtDXPS): n.i.
10 | CCN(CC)c1ccc(/C=N/NC(=O)c2cccs2)c(O)c1 [Compound 21] | 6 | 11 |  | 70 (≈ 22.2 µg/mL) | 
11 | O=C(CCCOc1ccc(Cl)cc1Cl)N/N=C/c1cccc2[nH]ncc12 [Compound 22] | 47 |  |  |  | inhib. (%) mtDXPS (mtDXPS): n.i.; inhib. (%) growth inhibition of E. coli TolC (E. coli TolC; at 50 μM): n.i.
12 | O=C(CCCOc1ccc(Cl)cc1Cl)N/N=C/c1ccc(O)cc1F [Compound 23] | 40 to 62 |  |  | 45 (≈ 17.3 µg/mL) | inhib. (%) mtDXPS (mtDXPS): n.i.
13 | COc1cccc(/C=N/NC(=O)CCCOc2ccc(Cl)cc2Cl)c1O [Compound 25] | 45 |  |  | 60 (≈ 23.8 µg/mL) | inhib. (%) mtDXPS (mtDXPS): n.i.
14 | O=C(CCCOc1ccc(Cl)cc1Cl)N/N=C/c1ccc2cc[nH]c2c1 [Compound 26] | 58 | 5 |  | 14 ± 4 (≈ 5.46 µg/mL) | 
15 | O=C(N/N=C/c1ccc2cc[nH]c2c1)c1cc2c(s1)CCCC2 [Compound 35] | 62 | 30 |  | 16 ± 5 (≈ 5.17 µg/mL) | anti-TB activity, head-to-head comparative analysis (M. tuberculosis H37Rv): most active; MIC (M. tuberculosis H37Rv): 64 µM (≈ 20.7 µg/mL); aggregate formation [3]: did not induce aggregate formation
16 | CC(C)(C)OC(=O)N[C@@H](Cc1ccccc1)C(=O)N/N=C/c1ccc2cc[nH]c2c1 [Compound 37] | 40 | 3 | 60 |  | 
17 | O=C(NCCc1ccc(C(F)(F)F)nc1)c1cc2c(s1)CCCC2 [Compound 38] | 25.8 |  | 19 |  | 
18 | O=C(CCCOc1ccc(Cl)cc1Cl)NCCc1ccc(O)cc1F [Compound 39] | 37 |  | 83 |  | fold decrease in binding affinity for drDXPS (drDXPS [4]): ~2 fold
19 | FC(F)(F)c1ccc(-c2nnc(-c3cc4c(s3)CCCC4)o2)cn1 [Compound 40] |  |  |  |  | KD drDXPS (drDXPS [4]; SPR, steady-state fit): n.b.; inhib. (%) growth inhibition of E. coli TolC (E. coli TolC; at 50 μM): no inhibition and n.i.
20 | Oc1ccc(-c2nnc(CCCOc3ccc(Cl)cc3Cl)o2)c(F)c1 [Compound 41, 4-(5-(3-(2,4-dichlorophenoxy)propyl)-1,3,4-oxadiazol-2-yl)-3-fluorophenol] |  |  | 47 |  | inhib. (%) drDXPS (drDXPS [1]; at 60 μM): 48 ± 3%; IC50 (drDXPS [1]; estimated IC50 drDXPS, estimated assuming full inhibition at high concentrations): 99 µM
